In patent publication US20040166099A1, “Molecules preferentially associated with effector T cells and methods of their use” (TolerRx, Inc., priority 2002, published 2004):
“Also recorded” adds a separate entry of the source.

Columns and labels:
Format in all cases: cell-based, human
[1] = test system: regulatory T cells (TGFβ-derived Treg cells); experiment: Proliferation (3H-thymidine incorporation) of differentiated regulatory T cells stimulated with CD3 and CD28
Text: (§1) FIG. 4 depicts inhibition of proliferation of Th1 and Th2 cells, but not regulatory T cells, by Rottlerin, a commercially available inhibitor of PKC enzymes. Differentiated cells were stimulated with CD3 and CD28 in the presence of absence of the PKC inhibitor Rottlerin. Incorporation of ^3H-thymidine was used to monitor cell proliferation. Proliferation of each cell type is normalized to the proliferation observed in the absence of inhibitor.
Differentiated cell lines were produced from cells prepared from human cord blood or peripheral blood CD4+CD45RA+naïve T cells by a variety of methods, including flow cytometry and magnetic bead separations. Purity of the starting populations was >95%. Cells were then stimulated by CD3 and CD28 antibodies in RPMI 1640 with 10% FCS and 1% Human AB serum with defined mixtures of cytokines and neutralizing antibodies to cytokines to produce the differentiated cell types. […]
(§2) Three days after initiation of the cultures, three replicate tissue culture wells for each condition for each cell type were fed with media containing ^3H-thymidine to monitor cell division. Wells were harvested 18 hr later and incorporated ^3H was measured by scintillation counting.

Th2 cells = experiment: Proliferation (3H-thymidine incorporation) of differentiated Th2 cells stimulated with CD3 and CD28
Text: as §1
(§3) Differentiated cell lines were produced from cells prepared from human cord blood or peripheral blood CD4+CD45RA+naïve T cells by a variety of methods, including flow cytometry and magnetic bead separations. Purity of the starting populations was >95%. Cells were then stimulated by CD3 and CD28 antibodies in RPMI 1640 with 10% FCS and 1% Human AB serum with defined mixtures of cytokines and neutralizing antibodies to cytokines to produce the differentiated cell types. Th1 cells were produced by culture with IL12 (62 U/ml) and anti-IL4 (0.2 ug/ml); Th2 cells were produced by culture in IL4(145 U/ml) and anti-IL12 (10 ug/ml) and anti-IFNγ (10 ug/ml); and regulatory T cells were produced by culture in TGFβ (32 U/ml), IL9 (42 U/ml), anti-IL4 (10 ug/ml) and anti-IL12 (10 ug/ml) and anti-IFNγ(10 ug/ml). (Note: anti-IL12 was not used in all experiments). All cultures were supplemented with IL2 (65 U/ml) and IL15 (4500 U/ml). Cells were split into larger culture dishes as warranted by cell division. At the conclusion of one round of cell differentiation (7-12 days), cells were harvested for preparation of total RNA for use in the gene chip experiments.
(§4) Differentiated cells, prepared as above, were re-stimulated using CD3 and CD28 in the presence of a range of concentrations of the commercial inhibitor Rottlerin.
as §2

Th1 cells = experiment: Proliferation (3H-thymidine incorporation) of differentiated Th1 cells stimulated with CD3 and CD28
Text: as §1, §3, §4, §2

[2] = FIG. 5 legend, representative data
[3] = wells coated with CD3 and CD28, 3H-thymidine fed at day 3, harvested 18 hr later, increasing concentrations of inhibitor, FIG. 5

Row | Compound | inhibition of proliferation of regulatory T cells ([1]; regulatory T cells re-stimulated using CD3 and CD28, range of concentrations, three of three experiments, FIG. 4) | inhibition of cell division / proliferation of Th2 cells (Th2 cells; Th2 cells re-stimulated using CD3 and CD28, 5 uM, three of three experiments, FIG. 4) | inhibition of cell division / proliferation of Th1 cells (Th1 cells; Th1 cells re-stimulated using CD3 and CD28, 5 uM, three of three experiments, FIG. 4) | inhibition of proliferation of TGFβ-derived Treg cells (in words) [1, 2] | inhibition of proliferation of Th2 cells (in words) (Th2 cells; [2]) | proliferation of Th2 cells relative to control (Th2 cells; [3]) | inhibition of proliferation of Th1 cells (in words) (Th1 cells; [2]) | proliferation of Th1 cells relative to control (Th1 cells; [3])
1 | CC(=O)c1c(O)c(C)c(O)c(Cc2c(O)c3c(c(C(=O)/C=C/c4ccccc4)c2O)OC(C)(C)C=C3)c1O [Rottlerin] | not and did not inhibit | inhibition; also recorded: inhibited | inhibition; also recorded: inhibited |  |  |  |  | 
2 | NH2-RQIKIWFQNRRMKWKKMDQNMFRNFSFNMP-COOH (H-RQIKIWFQNRRMKWKKMDQNMFRNFSFNMP-OH) [antennapedia-PKCθ peptide] |  |  |  | not | selectively inhibits | 16 % of control levels | selectively inhibits | 16 % of control levels
